# Assay results taken from PubChem BioAssay (NCI).
#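 Interpolation was linear, between the two tested concentrations surrounding the appropriate level; five concentrations were tested over 48 hours in 96-well plates. TGI denotes the concentration required for complete inhibition of growth.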
# How the values were obtained:
# Test in all cases: NCI-60 cell line screen, 48 h
# 786-0 renal = test system: 786-0 renal
# A498 renal = test system: A498 renal
# A549 NSCLC = test system: A549 NSCLC
# ACHN renal = test system: ACHN renal
# CAKI-1 renal = test system: CAKI-1 renal
# CCRF-CEM leukemia = test system: CCRF-CEM leukemia
# COLO 205 colon = test system: COLO 205 colon
# DLD-1 colon = test system: DLD-1 colon
# DMS 273 small cell lung = test system: DMS 273 small cell lung
# HCT-116 colon = test system: HCT-116 colon
# HL-60(TB) leukemia = test system: HL-60(TB) leukemia
# HOP-18 NSCLC = test system: HOP-18 NSCLC
# HOP-62 NSCLC = test system: HOP-62 NSCLC
# HOP-92 NSCLC = test system: HOP-92 NSCLC
# HT29 colon = test system: HT29 colon
# IGROV1 ovarian = test system: IGROV1 ovarian
# K-562 leukemia = test system: K-562 leukemia
# KM12 colon = test system: KM12 colon
# KM20L2 colon = test system: KM20L2 colon
# LOX IMVI melanoma = test system: LOX IMVI melanoma
# LXFL 529 NSCLC = test system: LXFL 529 NSCLC
# M14 melanoma = test system: M14 melanoma
# M19-MEL melanoma = test system: M19-MEL melanoma
# MALME-3M melanoma = test system: MALME-3M melanoma
# MOLT-4 leukemia = test system: MOLT-4 leukemia
# NCI-H226 lung = test system: NCI-H226 lung
# NCI-H23 lung = test system: NCI-H23 lung
# NCI-H460 lung = test system: NCI-H460 lung
# NCI-H522 lung = test system: NCI-H522 lung
# OVCAR-3 ovarian = test system: OVCAR-3 ovarian
# OVCAR-8 ovarian = test system: OVCAR-8 ovarian
# RPMI-8226 leukemia = test system: RPMI-8226 leukemia
# RXF-631 renal = test system: RXF-631 renal
# SF-268 CNS = test system: SF-268 CNS
# SF-295 CNS = test system: SF-295 CNS
# SF-539 CNS = test system: SF-539 CNS
# SK-MEL-28 melanoma = test system: SK-MEL-28 melanoma
# SK-MEL-5 melanoma = test system: SK-MEL-5 melanoma
# SK-OV-3 ovarian = test system: SK-OV-3 ovarian
# SN12C renal = test system: SN12C renal
# SNB-19 CNS = test system: SNB-19 CNS
# SNB-75 CNS = test system: SNB-75 CNS
# SNB-78 CNS = test system: SNB-78 CNS
# SR leukemia = test system: SR leukemia
# SW-620 colon = test system: SW-620 colon
# TK-10 renal = test system: TK-10 renal
# U251 CNS = test system: U251 CNS
# UACC-257 melanoma = test system: UACC-257 melanoma
# UACC-62 melanoma = test system: UACC-62 melanoma
# UO-31 renal = test system: UO-31 renal
# XF 498 CNS = test system: XF 498 CNS
smiles,measurement,setting,value
Cc1cn(C2C=CC(=O)C(C)O2)c(=O)[nH]c1=O (stereo unspecified),TGI,786-0 renal,32.2 µM
same,TGI,A498 renal,> 100 µM
same,TGI,A549 NSCLC,> 100 µM
same,TGI,ACHN renal,31.3 µM
same,TGI,CAKI-1 renal,31.5 µM
same,TGI,CCRF-CEM leukemia,32.5 µM
same,TGI,COLO 205 colon,32 µM
same,TGI,DLD-1 colon,29.7 µM
same,TGI,DMS 273 small cell lung,33.7 µM
same,TGI,HCT-116 colon,24.6 µM
same,TGI,HL-60(TB) leukemia,38.1 µM
same,TGI,HOP-18 NSCLC,28.5 µM
same,TGI,HOP-62 NSCLC,43.2 µM
same,TGI,HOP-92 NSCLC,29.5 µM
same,TGI,HT29 colon,33.4 µM
same,TGI,IGROV1 ovarian,34.4 µM
same,TGI,K-562 leukemia,36.9 µM
same,TGI,KM12 colon,30.1 µM
same,TGI,KM20L2 colon,30.2 µM
same,TGI,LOX IMVI melanoma,26.6 µM
same,TGI,LXFL 529 NSCLC,28.1 µM
same,TGI,M14 melanoma,29.7 µM
same,TGI,M19-MEL melanoma,30.1 µM
same,TGI,MALME-3M melanoma,25.9 µM
same,TGI,MOLT-4 leukemia,40.9 µM
same,TGI,NCI-H226 lung,42.1 µM
same,TGI,NCI-H23 lung,37.1 µM
same,TGI,NCI-H460 lung,35.5 µM
same,TGI,NCI-H522 lung,32.4 µM
same,TGI,OVCAR-3 ovarian,31.4 µM
same,TGI,OVCAR-8 ovarian,35.5 µM
same,TGI,RPMI-8226 leukemia,47.9 µM
same,TGI,RXF-631 renal,28.5 µM
same,TGI,SF-268 CNS,33.5 µM
same,TGI,SF-295 CNS,31.3 µM
same,TGI,SF-539 CNS,32.8 µM
same,TGI,SK-MEL-28 melanoma,28.1 µM
same,TGI,SK-MEL-5 melanoma,28.1 µM
same,TGI,SK-OV-3 ovarian,> 100 µM
same,TGI,SN12C renal,29.8 µM
same,TGI,SNB-19 CNS,43.9 µM
same,TGI,SNB-75 CNS,29.1 µM
same,TGI,SNB-78 CNS,35.4 µM
same,TGI,SR leukemia,43.8 µM
same,TGI,SW-620 colon,28.8 µM
same,TGI,TK-10 renal,28.5 µM
same,TGI,U251 CNS,28.6 µM
same,TGI,UACC-257 melanoma,27.8 µM
same,TGI,UACC-62 melanoma,29.1 µM
same,TGI,UO-31 renal,27.7 µM
same,TGI,XF 498 CNS,26.4 µM
